Test results: article PMC8689225, “Cardiac ryanodine receptor N-terminal region biosensors identify novel inhibitors via FRET-based high-throughput screening” (The Journal of Biological Chemistry, 2021)

Columns and labels:
RyR2 = target: T1, RyR2 (Mus musculus, UniProt E9Q401); test: Ca2+ sparks in saponin-permeabilized ventricular cardiomyocytes; assay type: cell-based
T1 construct: endogenous in cells; host or cells: ventricular cardiomyocytes of male C57BL/6J mice, saponin-permeabilized
Method: Mouse ventricular cardiomyocytes were isolated enzymatically from hearts of male C57BL/6J mouse (10–12 weeks old, Jackson Laboratory) as previously described with minor modifications ([66]). Briefly, mice were injected with heparin (500 U/kg body weight) and anesthetized with isoflurane (2 to 5%) to a verified deep surgical plane, whereupon the heart was excised, resulting in euthanasia by exsanguination. Hearts were excised and retrogradely perfused with constant flow on a Langendorff apparatus (37 °C) with Ca^2+-free normal Tyrode’s solution, gassed with 100% O2. Collagenase type II (Worthington Biochemical Co) and protease type XIV (Sigma-Aldrich) were used for enzymatic digestion. Ventricular cardiomyocytes were then mechanically dissociated and filtered through a nylon mesh and allowed to sediment in Tyrode’s solution. The [Ca^2+] of the Tyrode’s solution was then raised to 0.5 mM in stepwise fashion, and cardiomyocytes were kept at room temperature in this solution until use. All animal handling and laboratory procedures were in accordance with the approved protocols of the University of California, Davis Institutional Animal Care and Use Committee conforming to the Guide for the Care and Use of Laboratory Animals published by the US National Institutes of Health (eighth edition, 2011).
Ca^2+ activity was imaged via confocal microscopy (Bio-Rad, Radiance 2100, 40× objective) in the line scan mode (166 lines/s; ex 488 nm, em >505 nm). Ca^2+ sparks were recorded from ventricular cardiomyocytes permeabilized with saponin (50 μg/ml) for 1 min in internal solution containing (in mM) 10 HEPES, 1 EGTA, 1 free MgCl2 (with free [Ca^2+] adjusted to 50 nM using MaxChelator), 120 K-aspartate, 10 reduced glutathione, 5 ATP, 5 phosphocreatine di-Na, creatine phosphokinase 5 U/ml, and dextran (MW: 40,000) 8% at pH 7.20. Cardiomyocytes were immediately washed with saponin-free internal solution and then superfused with internal solution (50 nM Ca^2+free) containing the Ca^2+-sensitive indicator, Fluo-4 pentapotassium salt (10 μM, Invitrogen). Ca^2+ spark parameters were analyzed over a 10 s period from each line scan recording. Ca^2+ transients and diastolic Ca^2+ release events were recorded from intact ventricular cardiomyocytes loaded for 30 min at room temperature with Fluo-4 AM (10 μM, Invitrogen) and Pluronic F-127 (0.02%, Invitrogen) followed by wash and de-esterification for 30 min in Tyrode’s solution containing (in mM) NaCl 140, KCl 4, CaCl2 1.8, MgCl2 1, HEPES 5, Na-HEPES 5, and glucose 5.5 at pH 7.40. To evoke Ca^2+ transients, intact cardiomyocytes were paced at 1 Hz in a field stimulation chamber (Warner Instruments) at room temperature. Ca^2+ activity was assessed in paired fashion before and after incubating cardiomyocytes with fusidic acid (FA) for 6 min at each concentration. ImageJ was used for image processing and analysis, and Ca^2+ sparks were analyzed using the SparkMaster plugin ([67]). Chemical reagents were purchased from Sigma-Aldrich unless indicated otherwise.
Statistical analyses were performed using GraphPad Prism 9. Normality was verified using the D’Agostino & Pearson test. Repeated measures (at different FA concentrations) one-way ANOVA with Geisser–Greenhouse correction followed by the Dunnett’s multiple comparison post-hoc test was used for normally distributed data to determine individual differences in matched responses. […]

NTR of mouse RyR2 = target: T2, NTR of mouse RyR2 (Mus musculus, UniProt E9Q401); test: Surface plasmon resonance with isolated NTR (His-MBP tag); assay type: binding
T2 construct: The NTR of mouse RyR2 (residues 1–547) was cloned and expressed as previously described; made in house; host or cells: Escherichia coli Rosetta (DE3) pLacI
T2 sequence (E9Q401 1-547): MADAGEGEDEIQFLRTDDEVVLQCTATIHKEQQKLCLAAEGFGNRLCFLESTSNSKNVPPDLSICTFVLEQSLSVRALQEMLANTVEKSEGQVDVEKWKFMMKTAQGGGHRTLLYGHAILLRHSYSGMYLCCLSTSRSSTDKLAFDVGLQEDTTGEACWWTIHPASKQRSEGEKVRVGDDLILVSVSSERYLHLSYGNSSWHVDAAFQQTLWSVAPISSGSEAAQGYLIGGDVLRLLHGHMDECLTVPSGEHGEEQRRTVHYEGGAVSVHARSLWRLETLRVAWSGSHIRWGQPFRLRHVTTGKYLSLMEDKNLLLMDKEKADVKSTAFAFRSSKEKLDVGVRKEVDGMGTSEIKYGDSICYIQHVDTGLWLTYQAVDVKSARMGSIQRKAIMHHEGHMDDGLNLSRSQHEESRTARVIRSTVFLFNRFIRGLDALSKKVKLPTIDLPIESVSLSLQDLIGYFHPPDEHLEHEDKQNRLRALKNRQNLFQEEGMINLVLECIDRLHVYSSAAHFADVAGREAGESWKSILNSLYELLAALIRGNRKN
Method: The SPR experiments were performed using a BIACORE S200 (GE Healthcare) equipped with a NTA sensor chip. NTR with His and MBP tags (>90% pure based on SDS-PAGE) was immobilized using affinity of the His tag to the sensor surface. The surfaces of the sensor chip were activated with 0.5 mM Ni^2+ solution at a flow rate of 10 μl/min. The NTR at a concentration of 30 μg/ml in 10 mM HEPES, 150 mM KCl, pH 7.4, was immobilized on flow cell 2; flow cell 1 was left blank to serve as a reference surface. To collect kinetic binding data, the hits in the running buffer (10 mM HEPES, 150 mM NaCl, 0.05% P20, pH 7.4, 1% DMSO) were injected over the two flow cells at concentrations of 1.5625, 3.125, 6.25, 12.5, 25, 50, and 100 μM at a flow rate of 30 μl/min and at a temperature of 25 °C. The complex was allowed to associate and dissociate for 60 and 60 s, respectively. The surfaces were regenerated with a 120 s injection of 350 mM EDTA. Data were collected at a rate of 1 Hz. The data were fit using the global data analysis option available within Biacore S200 Evaluation 1.0 software.

[1] = system: intact mouse ventricular cardiomyocytes; test: Ca2+ transients in intact ventricular cardiomyocytes paced at 1 Hz; assay type: cell-based
Method: Mouse ventricular cardiomyocytes were isolated enzymatically from hearts of male C57BL/6J mouse (10–12 weeks old, Jackson Laboratory) as previously described with minor modifications ([66]). Briefly, mice were injected with heparin (500 U/kg body weight) and anesthetized with isoflurane (2 to 5%) to a verified deep surgical plane, whereupon the heart was excised, resulting in euthanasia by exsanguination. Hearts were excised and retrogradely perfused with constant flow on a Langendorff apparatus (37 °C) with Ca^2+-free normal Tyrode’s solution, gassed with 100% O2. Collagenase type II (Worthington Biochemical Co) and protease type XIV (Sigma-Aldrich) were used for enzymatic digestion. […]
Ca^2+ activity was imaged via confocal microscopy (Bio-Rad, Radiance 2100, 40× objective) in the line scan mode (166 lines/s; ex 488 nm, em >505 nm). Ca^2+ sparks were recorded from ventricular cardiomyocytes permeabilized with saponin (50 μg/ml) for 1 min in internal solution containing (in mM) 10 HEPES, 1 EGTA, 1 free MgCl2 (with free [Ca^2+] adjusted to 50 nM using MaxChelator), 120 K-aspartate, 10 reduced glutathione, 5 ATP, 5 phosphocreatine di-Na, creatine phosphokinase 5 U/ml, and dextran (MW: 40,000) 8% at pH 7.20. […] Ca^2+ spark parameters were analyzed over a 10 s period from each line scan recording. […]

[2] = single-cycle kinetics, global analysis

T1 sequence (E9Q401 whole entry): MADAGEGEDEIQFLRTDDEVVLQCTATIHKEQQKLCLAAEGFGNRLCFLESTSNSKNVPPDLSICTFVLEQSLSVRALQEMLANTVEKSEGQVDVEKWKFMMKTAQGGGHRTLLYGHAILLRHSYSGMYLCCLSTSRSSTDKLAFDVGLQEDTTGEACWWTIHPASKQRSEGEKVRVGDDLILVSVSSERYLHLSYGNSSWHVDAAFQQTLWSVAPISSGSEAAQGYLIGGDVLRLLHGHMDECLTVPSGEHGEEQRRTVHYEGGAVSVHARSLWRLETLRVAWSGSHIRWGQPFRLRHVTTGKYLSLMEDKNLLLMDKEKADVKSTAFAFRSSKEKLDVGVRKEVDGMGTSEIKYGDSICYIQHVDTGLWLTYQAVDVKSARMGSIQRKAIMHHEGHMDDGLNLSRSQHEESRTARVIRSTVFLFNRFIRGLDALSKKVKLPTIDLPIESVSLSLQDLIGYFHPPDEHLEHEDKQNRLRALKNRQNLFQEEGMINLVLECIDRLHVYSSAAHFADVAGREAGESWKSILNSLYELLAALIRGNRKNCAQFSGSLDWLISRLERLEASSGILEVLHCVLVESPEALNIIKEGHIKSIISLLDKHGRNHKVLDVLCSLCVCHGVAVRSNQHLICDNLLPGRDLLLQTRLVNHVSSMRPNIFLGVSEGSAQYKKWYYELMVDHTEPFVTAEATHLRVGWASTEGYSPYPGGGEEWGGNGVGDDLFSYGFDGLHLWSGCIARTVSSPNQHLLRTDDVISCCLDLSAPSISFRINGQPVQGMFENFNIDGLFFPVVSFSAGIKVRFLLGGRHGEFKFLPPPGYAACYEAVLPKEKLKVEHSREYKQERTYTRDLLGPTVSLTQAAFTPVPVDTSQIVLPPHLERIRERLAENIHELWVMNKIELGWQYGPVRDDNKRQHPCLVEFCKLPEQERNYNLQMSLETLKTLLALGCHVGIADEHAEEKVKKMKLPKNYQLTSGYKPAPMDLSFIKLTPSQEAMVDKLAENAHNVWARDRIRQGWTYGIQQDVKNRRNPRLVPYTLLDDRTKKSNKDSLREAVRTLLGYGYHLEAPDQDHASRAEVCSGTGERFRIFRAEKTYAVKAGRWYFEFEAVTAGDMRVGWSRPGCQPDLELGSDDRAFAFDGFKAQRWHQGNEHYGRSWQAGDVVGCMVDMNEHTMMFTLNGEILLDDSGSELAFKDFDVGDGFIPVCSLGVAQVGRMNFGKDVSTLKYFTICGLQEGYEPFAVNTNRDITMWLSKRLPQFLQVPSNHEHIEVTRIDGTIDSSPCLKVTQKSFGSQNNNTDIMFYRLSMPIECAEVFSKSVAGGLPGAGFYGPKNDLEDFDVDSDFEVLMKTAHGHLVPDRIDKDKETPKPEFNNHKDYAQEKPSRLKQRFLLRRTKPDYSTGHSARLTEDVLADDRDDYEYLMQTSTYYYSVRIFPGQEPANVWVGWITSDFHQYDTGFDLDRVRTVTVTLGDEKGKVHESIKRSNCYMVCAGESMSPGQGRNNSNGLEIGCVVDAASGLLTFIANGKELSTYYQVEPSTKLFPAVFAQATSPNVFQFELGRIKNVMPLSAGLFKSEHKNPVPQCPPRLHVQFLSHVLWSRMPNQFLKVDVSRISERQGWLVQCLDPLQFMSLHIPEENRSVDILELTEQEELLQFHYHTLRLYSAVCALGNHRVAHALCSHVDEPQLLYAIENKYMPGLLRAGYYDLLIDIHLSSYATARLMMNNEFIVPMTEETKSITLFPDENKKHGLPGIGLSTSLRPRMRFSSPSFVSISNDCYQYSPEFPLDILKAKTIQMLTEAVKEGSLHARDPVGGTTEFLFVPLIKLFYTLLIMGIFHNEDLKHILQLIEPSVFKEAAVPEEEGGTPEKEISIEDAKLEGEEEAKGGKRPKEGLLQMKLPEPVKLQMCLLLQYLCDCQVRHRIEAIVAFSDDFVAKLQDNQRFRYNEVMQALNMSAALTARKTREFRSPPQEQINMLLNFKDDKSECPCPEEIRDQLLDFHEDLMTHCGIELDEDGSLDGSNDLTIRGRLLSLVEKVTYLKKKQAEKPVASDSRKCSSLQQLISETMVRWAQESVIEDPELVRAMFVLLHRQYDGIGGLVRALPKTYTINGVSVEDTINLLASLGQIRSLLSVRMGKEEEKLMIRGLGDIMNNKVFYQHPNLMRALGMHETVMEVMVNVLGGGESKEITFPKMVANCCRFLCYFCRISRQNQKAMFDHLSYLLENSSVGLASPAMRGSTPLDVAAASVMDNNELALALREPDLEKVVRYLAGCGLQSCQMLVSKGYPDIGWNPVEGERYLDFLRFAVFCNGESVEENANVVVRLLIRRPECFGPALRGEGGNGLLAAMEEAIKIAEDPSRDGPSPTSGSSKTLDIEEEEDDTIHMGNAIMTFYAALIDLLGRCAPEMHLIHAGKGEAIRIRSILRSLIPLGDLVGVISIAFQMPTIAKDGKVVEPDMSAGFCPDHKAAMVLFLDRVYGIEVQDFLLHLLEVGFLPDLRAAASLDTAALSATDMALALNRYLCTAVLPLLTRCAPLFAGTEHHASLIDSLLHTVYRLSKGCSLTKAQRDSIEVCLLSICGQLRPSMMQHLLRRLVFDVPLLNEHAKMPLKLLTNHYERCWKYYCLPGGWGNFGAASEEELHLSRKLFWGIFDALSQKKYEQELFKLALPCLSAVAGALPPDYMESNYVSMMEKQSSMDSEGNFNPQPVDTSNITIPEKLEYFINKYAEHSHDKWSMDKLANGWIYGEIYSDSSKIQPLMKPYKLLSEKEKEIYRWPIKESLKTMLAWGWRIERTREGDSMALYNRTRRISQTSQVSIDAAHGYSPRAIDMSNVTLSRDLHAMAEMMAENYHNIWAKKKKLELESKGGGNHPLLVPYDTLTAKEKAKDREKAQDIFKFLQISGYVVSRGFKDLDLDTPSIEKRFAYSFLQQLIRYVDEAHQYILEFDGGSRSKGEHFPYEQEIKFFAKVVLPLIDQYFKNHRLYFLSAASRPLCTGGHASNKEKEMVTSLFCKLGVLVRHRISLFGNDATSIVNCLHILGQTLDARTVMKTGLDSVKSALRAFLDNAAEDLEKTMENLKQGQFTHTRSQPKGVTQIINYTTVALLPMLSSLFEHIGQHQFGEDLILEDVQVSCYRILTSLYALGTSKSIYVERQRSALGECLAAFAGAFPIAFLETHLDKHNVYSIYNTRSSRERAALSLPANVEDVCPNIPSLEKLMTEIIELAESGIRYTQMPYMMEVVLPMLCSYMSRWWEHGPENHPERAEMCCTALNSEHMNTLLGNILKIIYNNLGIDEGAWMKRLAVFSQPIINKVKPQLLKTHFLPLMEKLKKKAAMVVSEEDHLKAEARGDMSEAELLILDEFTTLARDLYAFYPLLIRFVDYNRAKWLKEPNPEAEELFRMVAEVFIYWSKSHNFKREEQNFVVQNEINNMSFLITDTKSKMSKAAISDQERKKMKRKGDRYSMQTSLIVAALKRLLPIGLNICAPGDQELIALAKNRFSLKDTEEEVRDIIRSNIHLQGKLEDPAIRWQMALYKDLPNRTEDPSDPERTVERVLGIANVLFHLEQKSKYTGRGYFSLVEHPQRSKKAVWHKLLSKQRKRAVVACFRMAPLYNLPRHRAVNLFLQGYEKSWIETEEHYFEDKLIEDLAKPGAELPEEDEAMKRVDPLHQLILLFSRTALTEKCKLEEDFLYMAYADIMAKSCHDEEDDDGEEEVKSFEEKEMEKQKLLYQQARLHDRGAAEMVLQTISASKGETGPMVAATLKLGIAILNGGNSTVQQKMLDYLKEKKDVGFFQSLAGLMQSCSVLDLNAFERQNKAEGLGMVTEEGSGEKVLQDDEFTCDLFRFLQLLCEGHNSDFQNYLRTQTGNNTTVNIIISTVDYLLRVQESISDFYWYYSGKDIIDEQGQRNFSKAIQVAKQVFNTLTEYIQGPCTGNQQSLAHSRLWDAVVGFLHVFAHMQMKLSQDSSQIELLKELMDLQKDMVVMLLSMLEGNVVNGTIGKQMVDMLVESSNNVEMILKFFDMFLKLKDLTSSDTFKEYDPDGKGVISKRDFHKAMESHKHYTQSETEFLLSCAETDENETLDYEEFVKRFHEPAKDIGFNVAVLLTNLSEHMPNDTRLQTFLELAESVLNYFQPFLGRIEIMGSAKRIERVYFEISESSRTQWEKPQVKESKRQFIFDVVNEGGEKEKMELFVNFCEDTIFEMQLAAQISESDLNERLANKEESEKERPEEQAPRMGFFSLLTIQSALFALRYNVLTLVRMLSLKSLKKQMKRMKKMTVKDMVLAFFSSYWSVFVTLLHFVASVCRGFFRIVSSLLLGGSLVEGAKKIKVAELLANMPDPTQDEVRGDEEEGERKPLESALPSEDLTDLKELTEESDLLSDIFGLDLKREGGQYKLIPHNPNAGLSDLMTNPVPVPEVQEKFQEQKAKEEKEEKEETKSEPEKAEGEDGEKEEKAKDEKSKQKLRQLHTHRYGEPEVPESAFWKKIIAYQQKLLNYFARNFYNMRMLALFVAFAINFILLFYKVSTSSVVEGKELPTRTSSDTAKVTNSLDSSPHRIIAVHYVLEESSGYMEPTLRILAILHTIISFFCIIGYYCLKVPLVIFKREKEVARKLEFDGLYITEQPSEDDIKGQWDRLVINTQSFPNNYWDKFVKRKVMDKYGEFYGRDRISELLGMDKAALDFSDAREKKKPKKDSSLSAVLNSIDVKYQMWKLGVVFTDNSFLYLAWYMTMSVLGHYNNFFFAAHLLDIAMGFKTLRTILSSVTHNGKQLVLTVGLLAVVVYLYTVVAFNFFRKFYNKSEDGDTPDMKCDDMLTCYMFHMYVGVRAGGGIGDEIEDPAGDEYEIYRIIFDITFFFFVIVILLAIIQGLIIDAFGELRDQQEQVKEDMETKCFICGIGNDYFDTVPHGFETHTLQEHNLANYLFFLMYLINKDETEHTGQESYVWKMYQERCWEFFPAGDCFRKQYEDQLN

## CC(=O)O[C@H]1C[C@@]2(C)[C@@H](C[C@@H](O)[C@H]3[C@@]4(C)CC[C@@H](O)[C@@H](C)[C@@H]4CC[C@@]32C)/C1=C(\CCC=C(C)C)C(=O)O [FA, (2Z)-2-[(3R,4S,5S,8S,9S,10S,11R,13R,14S,16S)-16-acetyloxy-3,11-dihydroxy-4,8,10,14-tetramethyl-2,3,4,5,6,7,9,11,12,13,15,16-dodecahydro-1H-cyclopenta[a]phenanthren-17-ylidene]-6-methylhept-5-enoic acid]
RyR2; 1 μM FA, p = 0.011
  Ca2+ spark signal mass relative to 0 nM FA: decreased significantly
RyR2; 10 μM FA, p = 0.001
  Ca2+ spark signal mass relative to 0 nM FA: decreased significantly
RyR2; [Ca2+]i 50 nM, 6 min exposures
  Ca2+ spark frequency over [FA] relative to 0 nM FA: did not detect significant differences
RyR2; increasing [FA], p = 0.0007
  Ca2+ spark signal mass, meancell slope: −0.336 F/F0 × μm × s/log10(μM)
RyR2; increasing [FA], p = 0.115
  Ca2+ spark frequency, meancell slope: −0.082 sparks/100 μm/s/log10(μM)
NTR of mouse RyR2; NTR with His-MBP tag
  KD (SPR): low micromolar
NTR of mouse RyR2; [2]
  KD (SPR), another component of heterogenous model fit: nanomolar
  KD (SPR), one component of heterogenous model fit: micromolar
[1]; FA across all concentrations tested (0.01–10 μM), 6 min
  cardiomyocytes with arrhythmogenic Ca2+ events (total paired measures): 10 of 12
[1]; even at very low [FA] (0.01 μM), pacing 1 Hz
  Ca2+ transient amplitudes: some diminution
